Test system: arthritis induced by injection of type II collagen in the mouse
Assay: Model of arthritis induced by type II collagen in mice (CIA), hind paw plethysmometry
Format: in vivo
Conditions: for Total hind paw volume (sum of both hind paws) / Oedema (difference in paw volume from basal values on day 21) in both hind paws: group mean n=10
Protocol: The aim of the study was to determine the anti-inflammatory activity of the test item in a model of arthritis induced by injection of type II collagen in the mouse (CIA) and to compare the activity of two different formulations: micronized and non-micronized.
Induction of arthritis was carried out by an initial exposure to type II bovine collagen by a subcutaneous injection at the base of the tail (induction phase).
After a recovery time of 21 days, animals received a booster injection and approximately 4-5 weeks after the first injection there was an immune response with arthritis appearing in the extremities in the majority of the cases.
Four experimental groups were used in the study with 10 animals in each group:
Group D: Positive control: FCA+vehicle B.I.D.
Group E: Micronized Test Item (Micro) 10 mg/kg B.I.D.
Group F: Non-Micronized test item 10 mg/kg B.I.D.
Group G: Reference item: Indomethacin 1 mg/kg Q.D.
The dose administered to groups E and F was 10 mg/kg.
The dose administered to group G was 1 mg/kg.
The doses of the test and reference items were expressed as mg/Kg of compound administered to each animal.
The test and reference items were administered in a solution of methylcellulose (0.25%: vehicle).
The positive control group received the vehicle (methylcellulose 0.25%).
The test and reference items, as well as the vehicle were administered orally at a dosing volume of 5 mls/kg.
The route of administration used was oral by use of an intragastric cannula.
On the day of start of the study each mouse was injected subcutaneously at the base of the tail with a first dose of 0.1 ml of an emulsion of bovine type II collagen (1 mg/mL) in Freund's Complete Adjuvant. Afterwards, on day 21 after this first injection, a second booster injection of type II collagen was administered to all animals. In this occasion the collagen suspension was done using Incomplete Freund's Adjuvant.
Coinciding with the second booster injection on day 21 treatment with the test or reference items was started to the corresponding animals.
Treatment with the test or reference items was carried out for 31 consecutive days (days 21-51 of the experimental period). Additionally, a recovery period was included at the end of the treatment period from day 52 to day 65 in order to evaluate the duration of any anti-inflammatory effect observed once dosing has been terminated.
The animals' hind paw volume was measured by plethysmometry one day before the 1st injection of collagen, again one day before the second (booster) collagen injection (basal values) and then daily after administration of test/reference item until the end of the study. During the recovery period at the end of the study, hind paw volume was measured three times per week.
Additionally the data was also represented graphically, depicting changes in total hind paw volume, as well as oedema (differences from basal (day 21) values).

[1] = day 22, oral treatment days 21-51, listed as Group F
[2] = day 23, oral treatment days 21-51, listed as Group F
[3] = day 26, oral treatment days 21-51, listed as Group F
[4] = day 27, oral treatment days 21-51, listed as Group F
[5] = day 29, oral treatment days 21-51, listed as Group F
[6] = day 30, oral treatment days 21-51, listed as Group F
[7] = day 33, oral treatment days 21-51, listed as Group F
[8] = day 34, oral treatment days 21-51, listed as Group F
[9] = day 35, oral treatment days 21-51, listed as Group F
[10] = day 36, oral treatment days 21-51, listed as Group F
[11] = day 37, oral treatment days 21-51, listed as Group F
[12] = day 41, oral treatment days 21-51, listed as Group F
[13] = day 42, oral treatment days 21-51, listed as Group F
[14] = day 43, oral treatment days 21-51, listed as Group F
[15] = day 44, oral treatment days 21-51, listed as Group F
[16] = day 47, oral treatment days 21-51, listed as Group F
[17] = day 48, oral treatment days 21-51, listed as Group F
[18] = day 49, oral treatment days 21-51, listed as Group F
[19] = day 50, oral treatment days 21-51, listed as Group F
[20] = day 51, oral treatment days 21-51, listed as Group F
[21] = day 54, recovery period after treatment days 21-51, listed as Group F
[22] = day 56, recovery period after treatment days 21-51, listed as Group F
[23] = day 58, recovery period after treatment days 21-51, listed as Group F
[24] = day 61, recovery period after treatment days 21-51, listed as Group F
[25] = day 63, recovery period after treatment days 21-51, listed as Group F
[26] = day 65, recovery period after treatment days 21-51, listed as Group F

SMILES: Oc1c(I)cc(I)cc1I [Non-Micronized, 2,4,6-triiodophenol]
- Total hind paw volume (sum of both hind paws) (day 0, before collagen and treatment, listed as Group F): 0.189
- Total hind paw volume (sum of both hind paws) (day 20, basal, before treatment, listed as Group F): 0.243
- Oedema (difference in paw volume from basal values on day 21) in both hind paws [1]: −0.003
- Total hind paw volume (sum of both hind paws) [1]: 0.240
- Oedema (difference in paw volume from basal values on day 21) in both hind paws [2]: 0.007
- Total hind paw volume (sum of both hind paws) [2]: 0.250
- Oedema (difference in paw volume from basal values on day 21) in both hind paws [3]: 0.010
- Total hind paw volume (sum of both hind paws) [3]: 0.253
- Oedema (difference in paw volume from basal values on day 21) in both hind paws [4]: −0.001
- Total hind paw volume (sum of both hind paws) [4]: 0.242
- Oedema (difference in paw volume from basal values on day 21) in both hind paws [5]: 0.006
- Total hind paw volume (sum of both hind paws) [5]: 0.248
- Oedema (difference in paw volume from basal values on day 21) in both hind paws [6]: 0.016
- Total hind paw volume (sum of both hind paws) [6]: 0.259
- Oedema (difference in paw volume from basal values on day 21) in both hind paws [7]: 0.007
- Total hind paw volume (sum of both hind paws) [7]: 0.250
- Oedema (difference in paw volume from basal values on day 21) in both hind paws [8]: 0.011
- Total hind paw volume (sum of both hind paws) [8]: 0.254
- Oedema (difference in paw volume from basal values on day 21) in both hind paws [9]: 0.013
- Total hind paw volume (sum of both hind paws) [9]: 0.255
- Oedema (difference in paw volume from basal values on day 21) in both hind paws [10]: 0.011
- Total hind paw volume (sum of both hind paws) [10]: 0.254
- Oedema (difference in paw volume from basal values on day 21) in both hind paws [11]: 0.000
- Total hind paw volume (sum of both hind paws) [11]: 0.243
- Total hind paw volume (sum of both hind paws) (day 40, oral treatment days 21-51): 0.273
- Oedema (difference in paw volume from basal values on day 21) in both hind paws (day 40, oral treatment days 21-51, listed as Group F): 0.030
- Oedema (difference in paw volume from basal values on day 21) in both hind paws [12]: 0.028
- Total hind paw volume (sum of both hind paws) [12]: 0.271
- Oedema (difference in paw volume from basal values on day 21) in both hind paws [13]: 0.021
- Total hind paw volume (sum of both hind paws) [13]: 0.264
- Oedema (difference in paw volume from basal values on day 21) in both hind paws [14]: 0.013
- Total hind paw volume (sum of both hind paws) [14]: 0.255
- Oedema (difference in paw volume from basal values on day 21) in both hind paws [15]: 0.006
- Total hind paw volume (sum of both hind paws) [15]: 0.248
- Oedema (difference in paw volume from basal values on day 21) in both hind paws [16]: 0.031
- Total hind paw volume (sum of both hind paws) [16]: 0.273
- Oedema (difference in paw volume from basal values on day 21) in both hind paws [17]: 0.034
- Total hind paw volume (sum of both hind paws) [17]: 0.277
- Oedema (difference in paw volume from basal values on day 21) in both hind paws [18]: 0.039
- Total hind paw volume (sum of both hind paws) [18]: 0.281
- Oedema (difference in paw volume from basal values on day 21) in both hind paws [19]: 0.046
- Total hind paw volume (sum of both hind paws) [19]: 0.289
- Oedema (difference in paw volume from basal values on day 21) in both hind paws [20]: 0.046
- Total hind paw volume (sum of both hind paws) [20]: 0.288
- Oedema (difference in paw volume from basal values on day 21) in both hind paws [21]: 0.065
- Total hind paw volume (sum of both hind paws) [21]: 0.307
- Oedema (difference in paw volume from basal values on day 21) in both hind paws [22]: 0.062
- Total hind paw volume (sum of both hind paws) [22]: 0.304
- Oedema (difference in paw volume from basal values on day 21) in both hind paws [23]: 0.070
- Total hind paw volume (sum of both hind paws) [23]: 0.312
- Oedema (difference in paw volume from basal values on day 21) in both hind paws [24]: 0.063
- Total hind paw volume (sum of both hind paws) [24]: 0.31
- Oedema (difference in paw volume from basal values on day 21) in both hind paws [25]: 0.073
- Total hind paw volume (sum of both hind paws) [25]: 0.32
- Oedema (difference in paw volume from basal values on day 21) in both hind paws [26]: 0.072
- Total hind paw volume (sum of both hind paws) [26]: 0.31
- effect on hind paw oedema (in words) (test item 10 mg/kg BID, Indomethacin 1 mg/kg Q.D, oral): did not result in any significant inhibition

From US7935853B2, “Micronized composition of a 2,4-disubstituted phenol derivative” (priority 2008, dated 2011)
